Reference: patent US8802353B2, “Compound for resist and radiation-sensitive composition specification” (Mitsubishi Gas Chemical Company, Inc., priority 2004, dated 2014)

Tests used:
Type in all cases: physicochemical
[1] = Glass transition temperature, crystallization temperature and quantity of crystallization heat (DSC); settings: for Glass transition temperature: 20° C./min, nitrogen gas flow; for Glass transition temperature-Crystallization temperature: rating of the difference
Protocol: A sample (about 10 mg) placed in a non-sealed aluminum container was heated to a temperature higher than the melting point at a temperature rising rate of 20° C./min in a nitrogen gas flow (50 ml/min). After being rapidly cooled, the sample was again heated to a temperature higher than the melting point at a temperature rising rate of 20° C./min in a nitrogen gas flow (30 ml/min). After being rapidly cooled, the sample was again heated to 400° C. at a temperature rising rate of 20° C./min in a nitrogen gas flow (30 ml/min), to conduct a differential scanning calorimetric analysis using DSC/TA-50WS manufactured by Shimadzu Corporation. The middle point of the region at which the base line turned discontinuous (the point at which the specific heat reduced to half) was taken as the glass transition temperature (Tg) and the temperature of the exothermic peak after the discontinuous region was taken as the crystallization temperature. The quantity of crystallization heat was determined by the area of the region which was surrounded by the exothermic peak and the base line. The sample was rated A when meeting Tg≧130° C., and rated C when meeting Tg≦130° C. Also, the sample was rated A when meeting (glass transition temperature)−(crystallization temperature)≧70° C., and rated C when meeting (glass transition temperature)-(crystallization temperature)<70° C.

[2] = Ultraviolet-visible absorption spectra, absorptivity coefficient at 248 nm; settings: 0.01 g/L methanol solution
Protocol: From the ultraviolet-visible absorption spectra of a 0.01 g/L methanol solution of each of Compounds 103, 105 and 108 measured by an autographic spectrophotometer “UV-3100PC” manufactured by Shimadzu Corporation, the absorptivity coefficient at 248 nm of each compound was determined. The absorptivity coefficient was 43.4 L/(cm·g) for Compound 103, 47.4 L/(cm·g) for Compound 105, and 16.9 L/(cm·g) for Compound 108. The absorptivity coefficient is sufficiently larger than 15 L/(cm·g) in any of the compounds, to indicate that the compounds, particularly Compounds 103 and 105, are useful as the raw material of the compound B for forming shade masks. The compounds B produced from these compounds and the radiation-sensitive composition containing such compounds B also have a high absorptivity and are useful for forming shade masks.

[3] = Solubility in safety solvent; settings: 23° C.; PGMEA, PGME, ethyl lactate, butyl acetate, methyl 3-methoxypropionate, ethyl propionate
Protocol: The solubility of the compound B was tested at 23° C. using propylene glycol monomethyl ether acetate, propylene glycol monomethyl ether, ethyl lactate, butyl acetate, methyl 3-methoxypropionate and ethyl propionate. The sample was rated A when dissolved in any one of the above solvents in a concentration of 5 wt % or more, rated B when dissolved in a concentration of 0.1 to 5 wt %, and rated C when dissolved only in a concentration of less than 0.1 wt %.

[4] = Film-forming property (spin-coated film on silicon wafer); design: key: rated C when the film was clouded or its surface was roughened; rated B when the film was partly clouded or roughened; rated A when the film had a good surface flatness without causing clouding; settings: 3% by weight solution spin-coated, 110° C. 3 min
Excerpt: A 3% by weight solution of the compound B or a mixture (compound B and polyphenol A) in PGME/PE (1/2 by weight) or acetone when not dissolved in PGME/PE was spin-coated on a silicon wafer which had been surface-treated with a silane coupling agent, to form a resist film with a thickness of about 0.05 μm.

[5] = Adhesion to silicon substrate; design: key: rated A when the film was not peeled from the silicon wafer; rated C when peeled off; settings: silicon wafer surface-treated with silane coupling agent
Protocol: The resist film formed in (2-2) was tested for its adhesion to the silicon wafer which was surface-treated with a silane coupling agent. The sample was rated A when the film was not peeled from the silicon wafer, and rated C when peeled off.

Row | Glass transition temperature Rating ([1]; DSC) | Glass transition temperature ([1]; DSC) | Crystallization temperature ([1]; DSC, exothermic peak) | absorptivity coefficient at 248 nm [2] | film-forming property [4] | Adhesion to silicon substrate [5] | Compound | Glass transition temperature-Crystallization temperature [1] | Solubility to safety solvent [3]
1 | C (rated C when meeting Tg≦130° C.) | 116 °C | 190 °C | 43.4 L/cm/g | – | – | Cc1cc(O)c(C(C)C)cc1C(c1ccc2cc(C(c3cc(C(C)C)c(O)cc3C)c3cc(C(C)C)c(O)cc3C)ccc2c1)c1cc(C(C)C)c(O)cc1C [Compound 103] | A (rated A when meeting (glass transition temperature)−(crystallization temperature)≧70° C.) | –
2 | A (rated A when meeting Tg≧130° C.) | 156 °C | – | 47.4 L/cm/g | – | – | Cc1cc(C(c2ccc3ccc(C(c4cc(C)c(O)c(C)c4C)c4cc(C)c(O)c(C)c4C)cc3c2)c2cc(C)c(O)c(C)c2C)c(C)c(C)c1O [Compound 105] | A (rated A when meeting (glass transition temperature)−(crystallization temperature)≧70° C.) | –
3 | A (rated A when meeting Tg≧130° C.) | 125 °C | – | 16.9 L/cm/g | – | – | Cc1cc(C(c2cc(C(c3cc(C)c(O)c(C)c3C)c3cc(C)c(O)c(C)c3C)cc(C(c3cc(C)c(O)c(C)c3C)c3cc(C)c(O)c(C)c3C)c2)c2cc(C)c(O)c(C)c2C)c(C)c(C)c1O [Compound 108] | A (rated A when meeting (glass transition temperature)−(crystallization temperature)≧70° C.) | –
4 | – | – | – | – | A | A | CCOC(C)Oc1ccc(C(C)(c2ccc(O)c(C)c2)c2ccc3ccccc3c2)cc1C (stereo not shown) [Compound 207, reference compound] | – | A (rated A when dissolved in any one of the above solvents in a concentration of 5 wt % or more)
5 | – | – | – | – | A | A | Cc1cc(C(C)(c2ccc(OC(C)OC3CCCCC3)c(C)c2)c2ccc3ccccc3c2)ccc1O (stereo not shown) [Compound 208, reference compound] | – | A (rated A when dissolved in any one of the above solvents in a concentration of 5 wt % or more)
